Values joined by “and” are separate entries in the source; they are usually repeats but may differ in a detail not shown here. Identical values can stand only once. Counter-ions that a name gives are not always drawn. Like-named read-outs stand apart in the source and are kept apart here.

The values below come from patent US5225425A, “Bis-aryl amide antagonists of platelet activating factor” (American Cyanamid Company, priority 1992, dated 1993).

One experiment has as its target T1, PAF receptor (Oryctolagus cuniculus, UniProt G1TEI7).
T1 construct: centrifuged at 800 rpm for 10-15 minutes at room temperature to recover the platelet rich plasma (PRP); from tissue; host or cells: platelets in platelet rich plasma from blood of male New Zealand White rabbits
The experiment in a line: Inhibition of PAF induced platelet aggregation in rabbit platelet rich plasma. The format is cell-based, rabbit (New Zealand White). Conditions: for inhibition at 10 µM: dose .00001 M. The procedure: Test compounds are evaluated as PAF receptor antagonists in vitro by measuring inhibition of PAF (platelet activating factor) induced platelet aggregation. Platelet aggregation is measured by a modification of the method described in […], et. al., J. Med. Chem., 27 1174, 1984. […] All syringes and pipets are plastic. The blood is gently mixed and immediately centrifuged at 800 rpm for 10-15 minutes at room temperature to recover the platelet rich plasma (PRP). Platelet poor plasma (PPP) is prepared by centrifuging PRP at 2800 rpm for 10 minutes at room temperature. Dilutions (1:3000) of PRP in Isotone diluent are made and platelet counts are determined on a Coulter Thrombocounter which is standardized with platelet reference standards (Interscience Platelet Control, Portland, Oreg.). PRP platelet counts are adjusted to approximately 400,000-500,000 platelets/μl by the addition of PPP. L-PAF (Platelet Activating Factor) is obtained from Calbiochem. […] All solutions are made up in plastic tubes, stored on ice and protected from heat and light. Solutions are prepared fresh or frozen at -20° C. and used within 48 hours. Incubation mixtures consisted of 400 μl PRP, 50 μl of saline diluent or test compound and 50 μl of PAF agonist. More specifically, 400μl of PRP is stabilized in a cuvette for 1-2 minutes at 37° C. in the aggregometer to achieve a stable baseline, then 50 μl of saline or test compound is added and incubated for 5 minutes before addition of the challenge concentration of pAF. A submaximal concentration is determined from the dose response curve for PAF for that experiment. In general, the challenge concentration is 5E-8 or 1E-7M. Aggregation is monitored for 5 minutes. Samples containing test compound or diluent are run simultaneously for comparison. Test compounds are initially evaluated at a screening concentration of 1E-5M. […] The recording equipment consists of a dual channel Chronolog aggregometer connected to a dual channel 10MV full scale deflection Omniscribe chart recorder (Houston Instruments). The chart recorder is calibrated daily with the use of a suspension of Bio-Rad latex beads (S-X 12 400 mesh) which has a density slightly greater than rabbit PRP. […] These limits defined a full scale deflection. The aggregation traces are analyzed by a digitizing method (C. Kohler and B. Zoltan, J. Pharm. Methods, 12, 113, 1984) with x, y coordinate data stored in a computer file. A suitable program computes parameters of interest such as the magnitude of aggregation.

Another experiment deals with PAF. The experiment is described as follows: PAF induced lethality in mice. The format is in vivo. The following applies: PAF 150 μg/kg IV. The procedure: PAF given I.V. to mice causes an immediate hypotensive shock leading to death in 1 hour or less. […] Animals alive after 2 hours are counted and the activity of test compounds expressed as % survival corrected for any control (saline treated) animals which survived the PAF challenge.

[1] abbreviates: PAF challenge 1.0000E-08 M, read-out: % INH of PAF induced platelet aggregation.
[2] abbreviates: PAF challenge .0000005 M, read-out: % INH of PAF induced platelet aggregation.
The mark [3] stands for this setting: PAF challenge 5.0000E-08 M, read-out: % INH of PAF induced platelet aggregation.

T1 sequence (G1TEI7 1-342): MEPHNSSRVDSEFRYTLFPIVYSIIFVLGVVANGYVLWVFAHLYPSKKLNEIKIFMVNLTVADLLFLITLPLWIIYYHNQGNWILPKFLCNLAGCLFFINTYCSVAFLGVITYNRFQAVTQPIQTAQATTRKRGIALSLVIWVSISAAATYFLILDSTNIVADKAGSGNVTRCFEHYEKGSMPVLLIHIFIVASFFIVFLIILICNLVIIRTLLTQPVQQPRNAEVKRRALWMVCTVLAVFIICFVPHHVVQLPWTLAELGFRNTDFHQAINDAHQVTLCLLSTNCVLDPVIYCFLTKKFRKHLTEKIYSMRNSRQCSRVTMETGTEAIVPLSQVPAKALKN

`CCCCCCCCCCCCCCCCOc1ccc(OCC(=O)Nc2ccccc2C[n+]2csc(C)c2)cc1` [3-[[2-[[[4-(Hexadecyloxy)phenoxy]acetyl]amino]phenyl]methyl]-5-methyl-thiazolium bromide]: the half-maximal inhibitory concentration (IC50) was determined as 11.2 µM at PAF receptor (PAF challenge 1.0000E-08 M) and 3.8 µM at PAF receptor (PAF challenge .0000005 M). Further, the results for the inhibition at 10 µM at PAF receptor (setting [1]) and at PAF receptor (setting [2]) were 60% and 83%, respectively.

On PAF receptor (PAF challenge 5.0000E-08 M), `CCCCCCCCCCCCCCOc1ccc(CC(=O)Nc2cccc(-c3scc[n+]3C)c2)cc1` [3-Methyl-2-[3-[[[4-(tetradecyloxy)phenyl]acetyl]amino]phenyl]thiazolium chloride] gave an IC50 of 12 µM. Also, at PAF receptor (setting [3]), the inhibition at 10 µM was 46%.

`CCCCCCCCCCCCCCOc1cccc(CC(=O)Nc2ccccc2C[n+]2csc(C)c2)c1` [5-Methyl-3-[[2-[[[3-(tetradecyloxy)phenyl]acetyl]amino]phenyl]methyl]thiazolium bromide] showed an IC50 at PAF receptor (PAF challenge 5E-9 M) of 34 µM. Also, the inhibition at 10 µM at PAF receptor (setting [3]) amounted to 23%; at PAF receptor (PAF challenge 5E-9 M, read-out: % INH of PAF induced platelet aggregation) it was 27%.

With `CCCCCCCCCCCCCCOc1ccc(CCN(C(C)=O)c2cccc(C[n+]3csc(C)c3)c2)cc1` [3-[[3-[Acetyl[2-[4-(tetradecyloxy)phenyl]ethyl]amino]phenyl]methyl]-5-methyl-thiazolium bromide], the figures for the IC50 against PAF receptor (PAF challenge 8.0000E-09 M) and against PAF receptor (PAF challenge .0000005 M) were 2.91 µM and 4.3 µM, respectively. Further, the inhibition at 10 µM amounted to 85% on PAF receptor (PAF challenge 8.0000E-09 M, read-out: % INH of PAF induced platelet aggregation) and 69% at PAF receptor (setting [2]).

Take `CCCCCCCCCCCCCCOc1ccc(CC(=O)Nc2cccc(C[n+]3cc(C)cc(C)c3)c2)cc1` [3,5-Dimethyl-1-[[3-[[[4-(tetradecyloxy)phenyl]acetyl]amino]phenyl]methyl]pyridinium bromide]: on PAF receptor (setting [3]), the inhibition at 10 µM worked out at 84%.

On to `CCCCCCCCCCCCCCOc1ccc(CC(=O)Nc2ccc(C[n+]3csc(C)c3)cc2)cc1.[Br-]` [5-methyl-3-[[4-[[[4-(tetradecyloxy)phenyl]acetyl]amino]phenyl]methyl]-thiazolium bromide], for which the IC50 against PAF receptor (PAF challenge 5.0000E-08 M) was 0.18 µM and 0.32 µM and 1.3 µM. In addition, the inhibition at 10 µM at PAF receptor (setting [3]) worked out at 92%. Also, the “% Survival” value in the experiment on PAF (5 mg/kg P.O.) and in the experiment on PAF (20 mg/kg P.O.) was 32% each time.

With `CCCCCCCCCCCCCCOc1ccc(NC(=O)c2cccc(C[n+]3csc(C)c3)c2)cc1` [5-Methyl-3-[[3-[[[4-(tetradecyloxy)phenyl]amino]carbonyl]phenyl]methyl]thiazolium bromide], the half-maximal inhibitory concentration (IC50) against PAF receptor (PAF challenge 5.0000E-08 M) is 2.7 µM. Besides, on PAF receptor (setting [3]), the inhibition at 10 µM was found to be 89%.

Regarding `CCCCCCCCCCCCCCOc1ccc(NC(=O)Nc2cccc(C[n+]3csc(C)c3)c2)cc1` [5-Methyl-3-[[3-[[[[4-(tetradecyloxy)phenyl]amino]carbonyl]amino]phenyl]methyl]thiazolium bromide], the concentration for half-maximal inhibition (IC50) on PAF receptor (PAF challenge 5.0000E-08 M) was 1.5 µM; on PAF receptor (PAF challenge .0000001 M), 16.9 µM. In addition, at PAF receptor (setting [3]), the inhibition at 10 µM came out at 92%. Besides, the inhibition at 50 µM at PAF receptor (dose .00005 M, PAF challenge .0000001 M, read-out: % INH of PAF induced platelet aggregation) amounted to 80%.

For `CCCCCCCCCCCCCCCCOc1ccc(OCC(=O)Nc2cccc(C[n+]3csc(C)c3)c2)cc1` [3-[[3-[[[4-(Hexadecyloxy)phenoxy]acetyl]amino]phenyl]methyl]-5-methyl-thiazolium bromide], the results for the IC50 against PAF receptor (PAF challenge 1.0000E-08 M) and on PAF receptor (PAF challenge 5.0000E-08 M) were 4.4 µM and 5 µM, respectively. The inhibition at 10 µM came to 93% at PAF receptor (setting [1]) and 72% on PAF receptor (setting [3]).

`CCCCCCCCCCCCCCOc1ccc(CC(=O)Nc2cccc(-n3ccnc3C)c2)cc1` [N-[3-(2-methyl-1H-imidazol-1-yl)phenyl]-4-(tetradecyloxy)-benzeneacetamide monohydrochloride]: the half-maximal inhibitory concentration (IC50) at PAF receptor (PAF challenge 5.0000E-08 M) was 18.6 µM. The inhibition at 10 µM on PAF receptor (setting [3]) stood at 34%.

Take `CCCCCCCCCCCCCCOc1ccc(CN(C(C)=O)c2cccc(C[n+]3csc(C)c3)c2)cc1.[Br-]` [3-[[3-[Acetyl[[4-(tetradecyloxy)phenyl]methyl]amino]phenyl]methyl]-5-methylthiazolium bromide]: the inhibition at 10 µM on PAF receptor (setting [3]) turned out to be 98%. Besides, the “% Survival” value with PAF (1 mg/kg I.V.) came to 83%; with PAF (5 mg/kg P.O.), 52%; with PAF (10 mg/kg P.O.), 75%; in the experiment with PAF (20 mg/kg P.O.) it was 75%; in the experiment on PAF (.25 mg/kg I.V.) it was 100%; with PAF (.5 mg/kg I.V.), 83%.

For the compound `CCCCCCCCCCCCCCOc1ccc(CC(=O)Nc2cccc(C[n+]3ccn4ccccc43)c2)cc1`, the concentration for half-maximal inhibition (IC50) on PAF receptor (PAF challenge 5.0000E-08 M) was 1.5 µM. In addition, the inhibition at 10 µM on PAF receptor (setting [3]) was 91%.

As for `CCCCCCCCCCCCCCOc1ccc(CN(C(C)=O)c2cccc(C[n+]3ccc(C)c(C)c3)c2)cc1` [1-[[3-[acetyl[[4-(tetradecyloxy)phenyl]methyl]amino]phenyl]methyl]-3,4-dimethyl-pyridinium bromide], the IC50 against PAF receptor (PAF challenge 5.0000E-08 M) was 12 µM. The inhibition at 10 µM at PAF receptor (setting [3]) is 52%.

As to `CCCCCCCCCCCCCCOc1ccc(CC(=O)Nc2ccc(-n3cc[n+](C)c3C)cc2)cc1` [2,3-dimethyl-1-[4-[[[4-(tetradecyloxy)phenyl]acetyl]amino]phenyl]1H-imidazolium iodide], at PAF receptor (PAF challenge 5.0000E-08 M), the IC50 amounted to 4.51 µM. The inhibition at 10 µM at PAF receptor (setting [3]) was 62%.

On PAF receptor (PAF challenge 5.0000E-08 M), `CCCCCCCCCCCCCCOc1ccc(CN(C(C)=O)c2ccc(C[n+]3csc(C)c3)cc2)cc1` [3-[[4-[acetyl[[4-(tetradecyloxy)phenyl]methyl]amino]phenyl]methyl]-5-methyl-thiazolium bromide] returned a concentration for half-maximal inhibition (IC50) of 2.1 µM. Moreover, the inhibition at 0.1 µM at PAF receptor (dose .0000001 M, PAF challenge 5.0000E-08 M, read-out: % INH of PAF induced platelet aggregation) worked out at 84%.

`CCCCCCCCCCCCCCOc1ccc(C(=O)Nc2cccc(C[n+]3csc(C)c3)c2)cc1` [5-Methyl-3-[[3-[[4-(tetradecyloxy)benzoyl]amino]phenyl]methyl]thiazolium bromide]: the IC50 against PAF receptor (PAF challenge 5.0000E-08 M) was 5.97 µM. Besides, at PAF receptor (setting [3]), the inhibition at 10 µM stood at 54%.

In the case of `CCCCCCCCCCCCCCOc1ccc(CC(=O)Nc2cccc(-n3cc[n+](C)c3C)c2)cc1` [2,3-dimethyl-1-[3-[[[4-(tetradecyloxy)phenyl]acetyl]amino]phenyl]1H-imidazolium iodide], the half-inhibitory concentration (IC50) on PAF receptor (PAF challenge 5.0000E-08 M) was found to be 2.47 µM. The inhibition at 10 µM at PAF receptor (setting [3]) came out at 80%.
